Several values for one entry are separate records, joined by “and”; a condition that tells them apart may be missing. Identical values can stand only once. Entries after “also recorded” stand apart in the source; their conditions may differ. Like-named read-outs stand apart in the source and are kept apart here.
What was measured:
[1] = system: intracellular T. cruzi amastigotes; experiment: T. cruzi intracellular assay (high-content imaging, infected Vero cells); type: cell-based, Trypanosoma cruzi; parameters: Max Effect (T. cruzi): unit not given here
Description: T. cruzi parasite, TcI strain Silvio X10/7 subclone A1 [34] was maintained in culture as previously described. Parasites were maintained as amastigotes by passaging on a weekly basis in Vero cells. Culture maintenance infections were carried out at an MOI (multiplicity of infection) of 1.5.
(§1) This assay was performed as described with the only modification that treatment was 96 h instead of 72 h. Briefly, Vero cells were infected overnight with tissue culture derived T. cruzi trypomastigotes in T225 tissue culture flasks (MOI 5). Any remaining free trypomastigotes were washed away with serum free MEM and the infected Vero cells were harvested by trypsinisation. Compounds (250 nL in DMSO) were dispensed using LabCyte ECHO (Beckman Coulter Life Sciences, USA) into each well of Corning black flat bottomed 384-well plates (Corning, USA). […] The infected Vero cells were then plated into the plates containing the compounds, at 4,000 cells per well in MEM media with 1% FCS. After 96 h incubation at 37°C in presence of 5% CO2, the plates were fixed with 4% formaldehyde for 20 min at room temperature and stained with 5 μg/mL Hoechst 33342. The plates were imaged on a Perkin Elmer Operetta high-content imaging system using a 20× objective. Images were analyzed using the Columbus system (Perkin Elmer). The algorithm first identified the Vero nuclei followed by demarcation of the cytoplasm and identification of intracellular amastigotes. This algorithm reported percent infected Vero cell and total number of Vero cells. All potency determinations were carried out in at least three independent replicates and are reported as pEC50 +/- standard deviation. pEC50 = -log(EC50[M]).

[2] = biological target: T1, LAPTc (acidic M17 leucyl-aminopeptidase from T. cruzi) (Trypanosoma cruzi, UniProt V5BWE3); experiment: High-throughput single point screening for LAPTc inhibitors by RapidFire-MS; type: biochemical; conditions: read-out: Percent Inhibition
T1 sequence (V5BWE3 entry or part of it): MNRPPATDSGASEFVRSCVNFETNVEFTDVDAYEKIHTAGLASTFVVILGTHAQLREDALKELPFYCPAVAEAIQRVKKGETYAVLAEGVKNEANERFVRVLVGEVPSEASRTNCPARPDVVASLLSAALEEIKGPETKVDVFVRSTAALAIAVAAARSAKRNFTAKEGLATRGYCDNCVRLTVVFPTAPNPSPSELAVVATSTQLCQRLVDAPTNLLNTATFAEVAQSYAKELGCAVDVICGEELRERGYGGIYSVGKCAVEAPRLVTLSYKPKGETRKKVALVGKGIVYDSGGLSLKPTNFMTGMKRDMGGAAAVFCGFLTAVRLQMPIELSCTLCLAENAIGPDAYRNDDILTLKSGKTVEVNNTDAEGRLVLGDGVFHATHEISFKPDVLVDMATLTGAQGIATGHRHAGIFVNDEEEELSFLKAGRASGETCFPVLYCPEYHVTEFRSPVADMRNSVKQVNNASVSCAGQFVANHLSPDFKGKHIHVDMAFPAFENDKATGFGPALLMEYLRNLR
Description: (§2) This assay was previously described. The assay was performed in 384-well clear F-bottom polypropylene plates with a final reaction volume of 15 μL. The reaction mixture contained 7.5 μL LAPTc in 50 mM Tris-HCl, pH 7.5, 0.005% NP-40 and 7.5 μL LSTVIVR peptide substrate (Cambridge Research Biochemicals, Billingham, UK) in the same buffer was added to start the reaction. The reaction was performed at room temperature for 40 min and then stopped with 85 μL 1% formic acid containing 0.15 mg/mL STVIVR* internal standard (Cambridge Research Biochemicals, Billingham, UK).
Single point screening of a library of 3329 compounds was performed in 384-well clear plates (Greiner 781101) at room temperature. Test compounds (45 nL in DMSO) were transferred to assay plates by an ECHO 550 acoustic dispenser (Labcyte). LAPTc was tested at 3 nM with 150 μM (approximately the value of the apparent Michaelis-Menten constant -appKM- [16]) LSTVIVR peptide substrate in a 40 min reaction. Before addition of substrate, LAPTc was preincubated with 45 nL compounds or DMSO for 15 min. Compounds, dissolved in DMSO, were tested at 30 μM. Controls without compound (the same volume of DMSO, 0% inhibitory effect) and without enzyme and compound (100% inhibitory effect) were prepared. The experiment was performed without replicates. The remaining experimental conditions were maintained as previously described. Data were processed and analysed through ActivityBase XE (IDBS). The selection criterion for hits in this single point screen was percent inhibition larger than the mean plus three standard deviations. All primary screening data are available in ChEMBL (see Data Availability statement).

[3] = Cytotoxicity assay on human HepG2 cells (resazurin); type: cell-based; conditions: human, HepG2 cells, 72 h, two independent experiments; read-out: pCC50 (HepG2) (converted)
HepG2 cells = experiment: as above; type: cell-based
[4] = Cytotoxicity against infected Vero host cells in T. cruzi intracellular assay; type: cell-based, African green monkey; parameters: Max Effect (Vero): unit not given here; conditions: African green monkey, Vero cells infected with T. cruzi; infected Vero host cells, 96 h; read-out: pCC50 (Vero) +/- StDev (converted)
Description: (§3) Briefly, these cells were maintained at 37°C and 5% CO2 in MEM supplemented with 10% FCS, sub-culturing every 2–3 days at a ratio of 1:5 after 5 min treatment with Trypsin-EDTA (Gibco).
as §1, with “After 96 h incubation at 37°C in presence of 5% CO2, the plates were fixed with 4% formaldehyde for 20 min at room temperature and stained with 5 μg/mL Hoechst 33342.” left out

Vero cells = experiment: as above; type: cell-based, African green monkey; parameters: Max Effect (Vero): unit not given here
Description: as §3
as §1, with “After 96 h incubation at 37°C in presence of 5% CO2, the plates were fixed with 4% formaldehyde for 20 min at room temperature and stained with 5 μg/mL Hoechst 33342.” left out

[5] = biological target: T1, LAPTc (acidic M17 leucyl-aminopeptidase from T. cruzi); experiment: Dose-response studies for LAPTc inhibition by RapidFire-MS; type: biochemical
Description: as §2
To generate half-maximum inhibitory concentration (IC50) data for LAPTc, 10-point dose-response curves with 100 μM as highest concentration and 1:2 dilution in DMSO (0.195–100 μM range) were prepared in 384 well plates. All other experimental conditions were as described above. All IC50 curve fitting was performed by four-parameter logistic dose-response curve fit using ActivityBase XE (IDBS). At least three replicates were generated for each hit compound.

human LAP3 = biological target: T2, human LAP3 (Homo sapiens, UniProt P28838); experiment: Dose-response studies for human LAP3 inhibition by RapidFire-MS; type: biochemical
T2 construct: purchased Assay Genie, Ireland
T2 sequence (P28838 whole entry): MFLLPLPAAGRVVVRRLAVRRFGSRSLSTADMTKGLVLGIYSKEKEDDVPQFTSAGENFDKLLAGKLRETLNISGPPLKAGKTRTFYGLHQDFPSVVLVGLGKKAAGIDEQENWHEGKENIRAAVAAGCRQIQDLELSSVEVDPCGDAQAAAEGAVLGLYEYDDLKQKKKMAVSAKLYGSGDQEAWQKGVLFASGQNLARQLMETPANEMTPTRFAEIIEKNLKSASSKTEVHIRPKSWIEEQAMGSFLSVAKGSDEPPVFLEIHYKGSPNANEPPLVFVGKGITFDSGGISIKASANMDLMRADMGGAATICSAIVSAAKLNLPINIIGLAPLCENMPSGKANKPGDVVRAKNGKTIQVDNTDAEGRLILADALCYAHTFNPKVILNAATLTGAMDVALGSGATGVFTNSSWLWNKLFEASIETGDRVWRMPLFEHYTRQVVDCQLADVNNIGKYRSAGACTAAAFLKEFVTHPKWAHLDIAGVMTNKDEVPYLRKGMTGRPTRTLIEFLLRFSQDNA
Description: Human LAP3 enzyme (Assay Genie, Ireland) was tested at 150 nM with 600 μM (~1 appKM) LSTVIVR peptide substrate and 1 mM ZnCl2 in a 180 min reaction. All other experimental conditions were as described above for dose-response assays with LAPTc.

LAPTc = LAPTc (Trypanosoma cruzi, UniProt V5BWE3); experiment: Mode of inhibition studies by RapidFire-MS; type: biochemical
Sequence of LAPTc (V5BWE3 entry or part of it): as the sequence (V5BWE3 entry or part of it) above
Description: Five concentrations of the LSTVIVR peptide substrate (100–1600 μM range) were tested in the presence of 3 nM LAPTc for 40 min. For each substrate concentration, compound 4 was tested at 0, 0.1 and 0.2 μM. For each substrate and compound 4 concentration, a negative control without enzyme was used. Before addition of substrate, LAPTc was preincubated with compound 4 for 15 min. Other experimental conditions were as previously described. Ki was calculated by fitting the Morrison equation to the experimental data. Binding energy (ΔGb) was calculated from Ki according to the equation ΔG = -RTlnKi.

[6] = system: intracellular T. cruzi amastigotes; parameters: method as in PMID 30001347; conditions: reported previously in this assay ref 33; cited from earlier work
[7] = Replicate data generation, individual replicates

With `COc1ccc2oc(C(=O)Nc3nc(-c4ccccn4)cs3)c(C)c2c1` [Compound 4] as the compound, how does the EC50 ([1]; Trypanosoma cruzi, Vero, 96 h, four independent experiments, read-out: pEC50 (T. cruzi) +/- StDev (converted)) read?
Its EC50 is 676 nM.

What about the EC50 ([1]; Trypanosoma cruzi, Vero, 96 h, read-out: EC50 (T. cruzi amastigotes)) of the same compound?
The EC50 was 700 nM.

What about the Emax ([1]; Trypanosoma cruzi, Vero, individual replicates, read-out: Max Effect (T. cruzi)) of the same compound?
Its Emax is 95%.

What about the EC50 ([1]; Trypanosoma cruzi, Vero, individual replicates, read-out: pEC50 (T. cruzi) (converted)) of the same compound?
Its EC50 is 631 nM.

And the “Max Effect (T. cruzi)” value ([1]; individual replicates)?
The value was 92 and 96 and 100.

What about the “pEC50 (T. cruzi)” value ([1]; individual replicates) of the same compound?
Its value is 6.1.

What about the inhibition at 30 µM [2] of the same compound?
Its inhibition at 30 µM is 59%.

What about the CC50 at 72 h [3] of the same compound?
Its CC50 at 72 h is > 100000 nM.

And the “Selectivity window based on the HepG2 data” value (HepG2 cells; T. cruzi vs HepG2)?
Its value is > 166 fold.

And the “Max Effect (HepG2)” value (HepG2 cells; individual replicates)?
The value was 38 and 49.

What about the “pEC50 (HepG2)” value (HepG2 cells; individual replicates) of the same compound?
The value was < 4.0.

What about the “toxicity against HepG2 cells (in words)” value (HepG2 cells; uninfected HepG2 cells) of the same compound?
The value was “no toxicity was observed; also recorded: some toxicity was seen for compound 4 at 33 μM and 100 μM”.

And the CC50 at 96 h [4]?
The CC50 at 96 h was 2240 nM.

What about the “Selectivity index (fold window Tc/Vero)” value (Vero cells) of the same compound?
Its value is 3.3 fold.

And the “Max Effect (Vero)” value (Vero cells; individual replicates)?
Its value is 85 and 83 and 79.

And the “pEC50 (Vero)” value (Vero cells; individual replicates)?
Its value is 5.4 and 6.0 and 5.5 and 5.8.

What about the IC50 ([5]; IC50 (LAPTc)) of the same compound?
Its IC50 is 440 nM.

And the “Hill Slope” value ([5]; Initial hit confirmation, single replicate)?
The value was 2.5.

What about the “Hill Slope” value [5, 7] of the same compound?
Its value is 2.8 and 2.1 and 2.3.

And the “Maximum Effect” value [5, 7]?
Its value is 87% and 81%.

And the IC50 ([5]; pIC50 +/- StDev (LAPTc), average of four independent replicates)?
The IC50 was 437 nM.

And the IC50 ([5]; pIC50, Initial hit confirmation, single replicate)?
Its IC50 is 200 nM.

What about the IC50 ([5]; pIC50, Replicate data generation, individual replicates) of the same compound?
Its IC50 is 794 nM and 501 nM.

What about the Emax ([5]; read-out: Maximum Effect, Initial hit confirmation, single replicate) of the same compound?
The Emax was 96%.

What about the Emax ([5]; read-out: Maximum Effect, Replicate data generation, individual replicates) of the same compound?
The Emax was 83%.

And the “Hit Confirmation” value ([5]; whether primary screen hit confirmed in potency experiment)?
The value was “confirmed”.

And the IC50 (human LAP3)?
Its IC50 is > 100000 nM.

And the Ki (LAPTc)?
The Ki was 270 nM.

And the “ligand efficiency (LE)” value (LAPTc; LE = -RT ln Ki / number of non-hydrogen atoms)?
The value was 0.33.

And the “experimental binding energy (ΔGb)” value (LAPTc; calculated from Ki, ΔG = -RTlnKi)?
The value was -8.95 kcal/mol.

And the mode of inhibition (LAPTc; with respect to substrate peptide LSTVIVR, Lineweaver-Burk)?
Its mode of inhibition is “competitive inhibitor”.

Which results are given for `O=C(Cn1ccnc1[N+](=O)[O-])NCc1ccccc1` [benznidazole]?
EC50 [6]: 2000 nM; pEC50 (T. cruzi) [6]: 5.7

For `CC1CS(=O)(=O)CCN1/N=C/c1ccc([N+](=O)[O-])o1` (centres unmarked) [nifurtimox], which EC50 [6] is on record?
Its EC50 is 800 nM.

And the “pEC50 (T. cruzi)” value [6]?
The value was 6.1.
